Counter-ions that a name gives are not always drawn. Activity calls are given as the source filed them. No cut-off for these calls is given here.

One assay deals with T1, Caspase-3 (Homo sapiens) (UniProt P42574).
T1 sequence (whole entry): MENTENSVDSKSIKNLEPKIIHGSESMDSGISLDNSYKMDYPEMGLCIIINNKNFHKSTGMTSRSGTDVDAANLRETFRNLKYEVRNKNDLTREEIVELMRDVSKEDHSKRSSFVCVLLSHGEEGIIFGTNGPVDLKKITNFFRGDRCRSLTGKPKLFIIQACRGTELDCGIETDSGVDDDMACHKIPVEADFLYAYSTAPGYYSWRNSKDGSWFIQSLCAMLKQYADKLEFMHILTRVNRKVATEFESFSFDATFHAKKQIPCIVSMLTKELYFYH
Nature of the assay: Activation of caspase 3 activity in IGROV1 cells assessed as DEVD peptide hydrolysis at 5 uM after 24 hrs. In kind it is cell-based. Conditions: IGROV-1.

For the next assay, the target named is T2, Caspase-7 (Homo sapiens) (UniProt P55210).
T2 sequence (whole entry): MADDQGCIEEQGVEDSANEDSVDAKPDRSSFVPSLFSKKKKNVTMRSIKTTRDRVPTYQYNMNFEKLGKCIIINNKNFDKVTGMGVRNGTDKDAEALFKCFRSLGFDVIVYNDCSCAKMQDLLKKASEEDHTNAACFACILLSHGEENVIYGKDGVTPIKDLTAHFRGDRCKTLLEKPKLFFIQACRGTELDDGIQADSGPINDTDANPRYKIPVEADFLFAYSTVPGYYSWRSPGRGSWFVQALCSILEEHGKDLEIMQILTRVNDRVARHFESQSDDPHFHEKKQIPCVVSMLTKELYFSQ
Nature of the assay: Activation of caspase 7 activity in IGROV1 cells assessed as DEVD peptide hydrolysis at 5 uM after 24 hrs. In kind it is cell-based. The conditions noted are these: IGROV-1.

Assay [1] is described as follows: Antitumor activity against leukemia cells. In kind it is functional. Conditions: Homo sapiens, Leukemia cell; for TGI: read-out: pTGI (converted).
The next assay concerns NSCLC. The assay is described as follows: Antitumor activity against NSCLC cells. In kind it is functional. Conditions: Homo sapiens; for TGI: read-out: pTGI (converted).
Assay [2] in a line: Antitumor activity against colon tumor cells. In kind it is functional. The conditions noted are these: Homo sapiens; for TGI: read-out: pTGI (converted).
Assay [3] in a line: Antitumor activity against CNS tumor cells. In kind it is functional. The conditions noted are these: Homo sapiens; for TGI: read-out: pTGI (converted).
Assay [4] is described as follows: Antitumor activity against melanoma cells. In kind it is functional. The conditions noted are these: Homo sapiens, Melanoma cell; for CC50: read-out: Log LC50 (the source's name) (converted); for TGI: read-out: pTGI (converted).
The nature of assay [5]: Antitumor activity against renal tumor cells. In kind it is functional. The conditions noted are these: Homo sapiens; for TGI: read-out: pTGI (converted).
A short description of assay [6]: Antitumor activity against prostate tumor cells. In kind it is functional. Conditions: Homo sapiens; for CC50: read-out: Log LC50 (the source's name) (converted); for TGI: read-out: pTGI (converted).
Assay [7] in a line: Antitumor activity against ovarian tumor cells. In kind it is functional. The conditions noted are these: Homo sapiens; for TGI: read-out: pTGI (converted).
A short description of assay [8]: Antitumor activity against breast tumor cells. Conditions: Homo sapiens; for TGI: read-out: pTGI (converted). In kind it is functional.

`COc1cc2c(/C=C3/C(=O)Nc4cccc(Cl)c43)c(Cl)n(Cc3ccc(Cl)cc3)c2cc1C`: the outcome at Caspase-3 (Homo sapiens) and on Caspase-7 (Homo sapiens) was Active.
Turning to `COc1cc2c(/C=C3/C(=O)Nc4cc(C)c(O)cc43)c(Cl)n(Cc3ccc(Cl)cc3)c2cc1C`, the outcome on Caspase-3 (Homo sapiens) and at Caspase-7 (Homo sapiens) was Active.
Take `COc1cc2c(/C=C3/C(=O)Nc4ccc(O)cc43)c(Cl)n(C)c2cc1C`: the outcome on Caspase-3 (Homo sapiens) and at Caspase-7 (Homo sapiens) was Active.
Take `COc1cc2c(/C=C3/C(=O)Nc4ccccc43)c(Cl)n(C)c2cc1C`: the result at Caspase-3 (Homo sapiens) and at Caspase-7 (Homo sapiens) was Active.
On to `COc1cc2c(/C=C3/C(=O)Nc4ccc(O)cc43)c(Cl)n(Cc3ccc(Cl)cc3)c2cc1C`, for which the result on Caspase-3 (Homo sapiens) and at Caspase-7 (Homo sapiens) was Active.
With `CC[C@]1(O)C[C@H]2CN(CCc3c([nH]c4ccccc34)[C@@](C(=O)OC)(c3cc4c(cc3OC)N(C=O)[C@H]3[C@@](O)(C(=O)OC)[C@H](OC(C)=O)[C@]5(CC)C=CCN6CC[C@]43[C@@H]65)C2)C1` [VINCRISTINE SULFATE], the GI50 in assay [1] was 100 nM; in the assay on NSCLC, 251 nM; in assay [2] it was 100 nM; in assay [3] it was 126 nM; in [4], 158 nM; in [5], 316 nM. The figures for the concentration for 50% growth inhibition (GI50) in assay [6], in assay [7] and in [8] were 126 nM, 316 nM and 316 nM, respectively. The TGI in [1] was 15800 nM; in the assay on NSCLC, 15.8 µM; in [2], 3.98 µM; in assay [3], 6310 nM; in [4], 7.94 µM; in assay [5] it was 20 µM. For the same compound, the values for the TGI in assay [6], in assay [7] and in [8] were 6.31 µM, 20000 nM and 7.94 µM, respectively. For the same compound, the CC50 in [4] is 251 µM; in assay [6] it was 316 µM.
For the compound `COc1cc2c(/C=C3/C(=O)Nc4c3ccc3ccccc43)c(Cl)n(C)c2cc1C`, the GI50 in assay [1] was 17.4 nM; in the assay on NSCLC, 30.9 nM; in assay [2] it was 77.6 nM; in assay [3], 115 nM; in [4], 53.7 nM; in [5] it was 72.4 nM. Moreover, the figures for the GI50 in [6], in [7] and in assay [8] were 562 nM, 35.5 nM and 46.8 nM, respectively. Besides, the TGI in assay [1] was 501 nM; in the assay on NSCLC it was 4.79 µM; in assay [2], 0.129 µM; in [3], 1620 nM; in [4], 6.61 µM; in assay [5], 2.63 µM. For the same compound, the TGI is 2.45 µM in assay [6], 562 nM in [7] and 3.02 µM in [8]. Also, the LC50 in the assay on NSCLC was 50.1 µM; in assay [2], 5.13 µM; in assay [3] it was 30.9 µM; in assay [5], 22.4 µM; in assay [7] it was 22.9 µM; in [8] it was 13.8 µM. Also, the CC50 in [4] is 36.3 µM; in assay [6], 25.7 µM. For the same compound, the outcome at Caspase-3 (Homo sapiens) and at Caspase-7 (Homo sapiens) was Active.
Regarding `COc1cc2c(/C=C3/C(=O)Nc4ccc(Cl)cc43)c(Cl)n(Cc3ccc(Cl)cc3)c2cc1C`, the result at Caspase-3 (Homo sapiens) and on Caspase-7 (Homo sapiens) was Active.
For `COc1cc2c(/C=C3/C(=O)Nc4ccc(F)cc43)c(Cl)n(C)c2cc1C`, the outcome at Caspase-3 (Homo sapiens) and on Caspase-7 (Homo sapiens) was Active.
As for `COc1cc2c(/C=C3/C(=O)Nc4ccc(Cl)cc43)c(Cl)n(C)c2cc1C`, the outcome at Caspase-3 (Homo sapiens) and at Caspase-7 (Homo sapiens) was Active.
Turning to `COc1cc2c(/C=C3/C(=O)Nc4cc(C)c(O)cc43)c(Cl)n(C)c2cc1C`, the outcome on Caspase-3 (Homo sapiens) and on Caspase-7 (Homo sapiens) was Active.
Take `COc1cc2c(/C=C3/C(=O)Nc4ccc(F)cc43)c(Cl)n(Cc3ccccc3)c2cc1C`: the result on Caspase-3 (Homo sapiens) and on Caspase-7 (Homo sapiens) was Active.
As to `COc1cc2c(/C=C3/C(=O)Nc4ccc(F)cc43)c(Cl)[nH]c2cc1C`, the result at Caspase-3 (Homo sapiens) and at Caspase-7 (Homo sapiens) was Active.
On to `COc1cc2c(/C=C3/C(=O)Nc4c3ccc3ccccc43)c(Cl)[nH]c2cc1C`, for which the GI50 in assay [1] is 10.2 nM; in the assay on NSCLC it was 102 nM; in [2], 17 nM; in assay [3], 13.5 nM; in assay [4], 10 nM; in assay [5], 89.1 nM. Further, the GI50 in assay [6] was 17 nM; in [7], 12 nM; in assay [8], 39.8 nM. Also, the TGI in assay [1] was 537 nM; with NSCLC it was 4.27 µM; in [2] it was 3.72 µM; in assay [3], 794 nM; in assay [4] it was 3.55 µM; in assay [5], 30.9 µM. In addition, the results for the TGI in assay [6], in assay [7] and in assay [8] were 50.1 µM, 708 nM and 2.04 µM, respectively. In addition, the median lethal concentration (LC50) was 49 µM with NSCLC; 50.1 µM in assay [2]; 50.1 µM in assay [3]; 50.1 µM in assay [5]; 47.9 µM in assay [7]; 50.1 µM in [8]. Also, the CC50 in assay [4] is 40.7 µM; in assay [6], 50.1 µM. Further, the outcome on Caspase-3 (Homo sapiens) and on Caspase-7 (Homo sapiens) was Active.
`COc1cc2c(/C=C3/C(=O)Nc4cccc(Cl)c43)c(Cl)n(C)c2cc1C`: the result at Caspase-3 (Homo sapiens) and at Caspase-7 (Homo sapiens) was Active.

One may read the GI50 as the concentration giving 50% growth inhibition. High values mean less potent growth inhibition, low ones more potent growth inhibition. Usually LC50 stands for the concentration that kills 50% of the test population. A higher LC50 goes with a less lethal substance.

The record behind these values is ChEMBL document CHEMBL1145408, “Substituted E-3-(2-chloro-3-indolylmethylene)1,3-dihydroindol-2-ones with antitumor activity. Effect on the cell cycle and apoptosis” (2007).
